Results taken from patent US6949648B2, “Condensed pyrazole derivatives, process for producing the same and use thereof” (Takeda Pharmaceutical Company Limited, priority 2000, dated 2005).
Where two headings read alike, the source gives them in different places. Marks after values point to notes of the source that are not given here.

Legend:
[1] = test system: gastric mucosa; assay: Disorder of gastric mucosa; format: in vivo, SD rats; details: stomach, 1000 mg/kg orally, fasted rats, 6 hours after dosing
Method: Disorder of Gastric Mucosa
Male SD origin male-rats (7 weeks old, CLEA Japan) were used. After 24 hours from the termination of food supply, samples were orally administered (5 mL/kg, b.w.). After 5.5 hours, Evan's Blue (0.5% Evan's Blue/saline) was injected intravenously (1 mL/rat) under no anesthesia. After 30 minutes from the shot, the stomach (with esophagus and duodenum of 1.5 to 2 cm length) was removed by celiotomy, and subsequently, the esophagus terminal was closed with a clip, and a 8 mL of 1% formalin solution was injected into the stomach through the duodenum, which was also closed with a clip after the injection. The stomach was left contacting with the 1% formalin solution for more than 10 minutes, and subsequently cut open from duodenum along the greater curvature of stomach. The stomach was washed and spread on a filter paper, and the length of each of the spots dyed by Evan's Blue (hemorrhagic portion: mucosal ablation to ulcer) was measured under a stereomicroscope, and the total length (mm) was calculated by a counter and recorded.

[2] = test system: adjuvant arthritis; assay: Anti-adjuvant-arthritic activity; format: in vivo, SD rats; details: 10 mg/kg orally once a day for 14 days; volume of left hind limb (not injected); day of reading not given
Method: Anti-Adjuvant-Arthritic Activity
Male SD origin male-rats (6 weeks old, CLEA Japan, 1 group: n=7) were used. The adjuvant arthritis method was conducted according to the method of Newbould B. B. et. al., (Brit. J. Pharmacol. Chemother., vol. 21, p. 127, 1963). Complete Freund's adjuvant (a suspension of killed tubercule bacillus in liquid paraffin at a concentration of 0.5%, 0.05 mL) was injected into the right hind limb footpad intracutaneouly to induce multiple arthritis. Samples were administered orally (10 mg/kg, b.w.), once a day for 14 days from the day before the injection day 0 to day 13. Volume of the left hind limb (not injected) was determined by the foot-volume measurement apparatus manufactured by Ugo Basile, on the day just before the adjuvant shot (Day 0), Day 10 and Day 14, and repression rate (%) was calculated comparing the values between the sample group and the control group.

[3] = test system: yeast-induced pyrexia; assay: Antipyretic activity in yeast-induced pyrexia; format: in vivo, SD rats; details: 10 mg/kg orally; maximum difference in body temperature vs control over 6 hours
Method: Antipyretic Activity in Yeast-Induced Pyrexia Antipyretic activity was determined using male SD origin male-rats (7 weeks old, CLEA Japan, 1 group: n=6), according to the method of winter et. al. (J. Pharmacol. Exp. Ther., vol. 138, p. 405, 1963). Before 16 hours from measurement of body temperature, a suspension of 15% yeast in saline was injected subcutaneously (10 mL/kg, b.w.) into the rats to induce fever, and simultaneously supply of food was terminated while water was made available all the time. Each of the rats was raised separately. After 16 hours from the yeast shot, a thermistor terminal was inserted at an about 4 cm depth into rectum every hour, and the body temperatures after 30 seconds were recorded. After 18 hours, rats developing fevers consistently were selected, and a sample was orally administered to the rats (5 mL/kg, b.w.), while to the control, only the solvent was administered. After the administration, body temperatures were measured every hour for a period of 6 hours, and the maximum difference in body temperature between the rats in the sample group and in the control group were determined as Δ (° C.).

[4] = test system: carrageenin edema of right hind limb plantar; assay: Anti-inflammatory activity, carrageenin edema method; format: in vivo, SD-rats; details: po, 10 mg/kg orally
Method: Anti-Inflammatory Activity
Male SD-rats (6 weeks old, CLEA Japan) were used (1 group, n=6). The Carrageenin edema method was performed according to the method of Winter et. al., (Proc. Soc. Exp. Biol. Med., vol. 111, p. 544-547, 1962). After the volume of right hind limb plantar of the rat was determined, a sample was orally administered (1.0 mL, b.w.), and immediately water was orally administered in an amount of 5 mL/rat. Meanwhile, only the solvent of the sample was orally administered to rats in control. After 1 hour, a solution of 1% carrageenin in saline (0.05 mL) was injected into the right hind limb plantar subcutaneously to induce edema. After 2 and 3 hours later from the injection, volumes of the right hind limb plantar were determined. The repression rate (%) of the sample was calculated by comparing the difference of the volumes of the plantar before the carrageenin shot and 2 and 3 hours after the shot between the sample groups and the control groups.

[5] = test system: acetic acid induced rising and stretching; assay: Analgesic activity, acetic acid rising method; format: in vivo, ICR-mice; details: po, 20 min; 10 mg/kg orally, 30 minutes before 0.6% acetic acid i.p.; number of rising and stretching in 20 minutes; read-out: Repression rate (%) Dosage 10 mg/kg
Method: Analgesic Activity Acetic Acid Rising Method Male ICR-mice (5 weeks old, CLEA Japan) were used (1 group, n=10), and a sample was orally administered (0.2 mL/10 g, b.w.). After 30 minutes, 0.6% acetic acid solution was injected to mice intraperitoneally (0.1 mL/10 g, b.w.), and the mice were immediately transferred into an observation cage made of a transparent acrylic resin. The number of rising and stretching during the following period of 20 minutes was counted. The repression rate (%) was calculated by comparing the average numbers between the sample groups and the control groups.

[6] = molecular target: T1, human COX-2 (Homo sapiens, UniProt P35354); assay: Determination of COX-2 inhibitory activity (microsome fraction, chemiluminescence); format: biochemical; details: microsome fraction 20 μg, arachidonic acid, 37° C. 25 minutes preincubation; read-out: Repression rate IC50 (μM) COX-2
T1 construct: made in house; host or cells: Sf-21 insect cells (recombinant baculovirus BAC-COX2, pFASTBAC1); microsome fraction
T1 sequence (P35354 18-604): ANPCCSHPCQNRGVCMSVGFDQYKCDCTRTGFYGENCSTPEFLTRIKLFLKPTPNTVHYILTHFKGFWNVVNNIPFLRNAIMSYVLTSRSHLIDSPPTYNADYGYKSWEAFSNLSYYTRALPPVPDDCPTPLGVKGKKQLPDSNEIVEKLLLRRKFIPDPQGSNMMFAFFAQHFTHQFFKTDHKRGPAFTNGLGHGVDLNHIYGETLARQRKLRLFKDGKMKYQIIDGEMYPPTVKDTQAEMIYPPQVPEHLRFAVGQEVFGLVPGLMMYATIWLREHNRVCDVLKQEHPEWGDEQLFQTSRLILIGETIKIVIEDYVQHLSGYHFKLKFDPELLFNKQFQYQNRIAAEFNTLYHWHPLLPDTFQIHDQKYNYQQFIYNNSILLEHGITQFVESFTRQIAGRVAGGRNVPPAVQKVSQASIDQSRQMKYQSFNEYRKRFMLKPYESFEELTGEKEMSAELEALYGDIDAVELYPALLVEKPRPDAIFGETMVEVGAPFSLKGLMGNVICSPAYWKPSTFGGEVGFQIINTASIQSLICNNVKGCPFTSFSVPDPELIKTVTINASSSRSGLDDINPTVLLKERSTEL
Method: A 1.8 kb DNA fragment containing human COX-2 cDNA (Proc. Natl. Acad. Sci. U.S.A., vol. 89 (16), p. 7384-7388 (1992)) prepared by the PCR method was inserted into plasmid pFASTBAC1 (CIBCOBRAL) to obtain a plasmid pFBCOX2.
Using the plasmid pFBCOX2 and BAC-TO-BAC Baculovirus Expression System (GIBCOBRAL), a virus stock BAC-COX2 of the recombinant baculovirus was prepared.
Sf-21 cells were inoculated in 125 mL of LSf-900 II SFM medium (GIBCOBRAL) at a concentration of 1×10^6 cells/mL, and the medium was incubated at 27° C. for 24 hours. 0.75 mL of the virus stock BAC-COX2 of the recombinant baculovirus was added thereto, and was incubated further for 72 hours. The cells were separated from the medium by centrifugation (3000 rpm, 10 min), and washed with PBS twice. The cells were suspended in 10 mL of a Lysis buffer (0.1M Tris-HCl (pH 7.4), 5 mM EDTA), and were treated with a homogenizer (POLYTRON), three times at 20000 rpm for 20 seconds so that the cells were crushed. The supernatant thus obtained after centrifugation (2000 rpm, 10 minutes) was further centrifuged (40000 rpm, 45 minutes) to obtain a precipitate, which was resuspended in a Lysis buffer (0.1M Tris-HCl (pH 7.4), 5 mM EDTA), and the suspension was stored at −80° C.
(§1) Determination of COX-1 and COX-2 Inhibitory Activities
(§2) To a mixture of 20 μL of a reaction buffer previously concentrated 10 times (1M Tris-HCl (pH8.0), 50 mM EDTA, 1.0% Tween 20, 50 mM luminol, 100 μM hematin), 20 μL of the microsome fractions (COX-1: 40 μg, COX-2: 20 μg), and 55 μL of distilled water, a sample compound dissolved in DMF (5 μL) was added, and the mixture was left at 37° C. for 25 minutes. The reaction was started by the addition of 20 μM arachidonic acid (100 μL), and chemiluminescence amount during the 10-second period after the addition of arachidonic acid was determined by the use of Lumistar (BMG Lab technologies, GmbH). The inhibition rate was calculated, regarding that the enzyme activity when DMF ([…]) was added was 100%, and the enzyme activity when 4 mM flurbiprofen (5 μL) was added was 0%.

[7] = molecular target: T2, human COX-1 (Homo sapiens, UniProt P23219); assay: Determination of COX-1 inhibitory activity (microsome fraction, chemiluminescence); format: biochemical; details: microsome fraction 40 μg, arachidonic acid, 37° C. 25 minutes preincubation; read-out: Repression rate IC50 (μM) COX-1
T2 construct: made in house; host or cells: Sf-21 insect cells (recombinant baculovirus BAC-COX1, pFASTBAC1); microsome fraction
Method: A 1.8 kb DNA fragment containing human COX-1 cDNA (FASEB J., vol. 5 (9), p. 2304-2312 (1991)) prepared by the PCR method was inserted into plasmid pFASTBAC1 (CIBCOBRL) to obtain a plasmid pFBCOX1.
Using the plasmid pFBCOX1 and BAC-TO-BAC Baculovirus Expression System (GIBCOBRL), a virus stock BAC-COX1 of the recombinant baculovirus was prepared.
Sf-21 cells were inoculated in 125 mL of Sf-900 II SFM medium (GIBCOBRL) at a concentration of 1×10^6 cells/mL, and the medium was incubated at 27° C. for 24 hours. 0.75 mL of the virus stock BAC-COX1 of the recombinant baculovirus was added thereto, and the mixture was incubated further for 72 hours. The cells were separated from the medium by centrifugation (3000 rpm, 10 min), and washed with PBS twice. The cells were suspended in 10 mL of a Lysis buffer (0.1M Tris-HCl (pH 7.4), 5 mM EDTA), and were treated with a homogenizer (POLYTRON) three times at 20000 rpm for 20 seconds so that the cells were crushed. The supernatant obtained after centrifugation (2000 rpm, 10 minutes) was further centrifuged (40000 rpm, 45 minutes) to give a precipitate, which was resuspended in a Lysis buffer (0.1M Tris-HCl (pH 7.4), 5 mM EDTA), and the suspension was stored at −80° C.
as §1, §2

[8] = test system: mucosa of small intestine; assay: Disorder of mucosa of small intestine; format: in vivo, SD rats; details: 300 mg/kg orally, freely fed rats, 6 hours after dosing
Method: Disorder of Mucosa of Small Intestine Male SD origin male-rats (7 weeks old, CLEA Japan) were used. To the rats freely fed, samples were administered orally (5 mL/kg, b.w.). After 5.5 hours from the administration, Evan's Blue (0.5% Evan's Blue/saline) was injected (1 mL/rat) intravenously under no anesthesia. After 30 minutes from the shot, the intestine was removed by celiotomy and the area thereof facing mesentery was cut open. After removal of intestinal content, the spots in the intestine dyed by Evan's Blue were measured under a stereomicroscope, and the total length (mm) of the spots was determined by a counter and recorded.

T2 sequence (P23219 24-599): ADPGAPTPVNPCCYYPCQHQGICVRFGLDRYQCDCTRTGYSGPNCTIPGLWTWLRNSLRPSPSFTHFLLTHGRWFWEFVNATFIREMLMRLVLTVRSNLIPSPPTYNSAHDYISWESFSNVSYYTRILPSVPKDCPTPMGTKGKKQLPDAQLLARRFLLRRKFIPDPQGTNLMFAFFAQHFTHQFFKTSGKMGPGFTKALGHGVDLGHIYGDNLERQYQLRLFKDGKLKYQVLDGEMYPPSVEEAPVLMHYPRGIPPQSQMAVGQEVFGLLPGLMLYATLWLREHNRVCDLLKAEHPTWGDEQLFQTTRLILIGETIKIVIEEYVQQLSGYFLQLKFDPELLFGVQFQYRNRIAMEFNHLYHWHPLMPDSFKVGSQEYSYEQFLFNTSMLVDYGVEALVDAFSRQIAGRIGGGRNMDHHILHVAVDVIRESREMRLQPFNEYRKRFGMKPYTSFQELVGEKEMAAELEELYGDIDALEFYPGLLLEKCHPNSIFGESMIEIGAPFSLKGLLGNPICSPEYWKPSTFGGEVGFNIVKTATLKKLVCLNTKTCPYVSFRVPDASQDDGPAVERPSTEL

SMILES | Total length of dyed spots (mm) [1] | Repression rate (%) Dosage 10 mg/kg [2] | Δ (° C.) Dosage 10 mg/kg [3] | inhibition in vivo at 10 mg/kg ([4]; 2 hr after carrageenin injection, read-out: Repression rate (%) Dosage 10 mg/kg 2 hr later) | inhibition in vivo at 10 mg/kg ([4]; 3 hr after carrageenin injection, read-out: Repression rate (%) Dosage 10 mg/kg 3 hr later) | melting point | inhibition in vivo at 10 mg/kg [5] | IC50 [6] | IC50 [7] | Total length of dyed spots (mm) [8]
Cc1nn(-c2ccccn2)c2[nH]c3cc(F)c(F)cc3c(=O)c12 [Example 2-91, 6,7-Difluoro-3-methyl-1-(2-pyridinyl)-1,9-dihydro-4H-pyrazolo[3,4-b]quinolin-4-one] | 0 (1000 mg/kg) mm | 76** % | 1.5** ° C. | 51% | 42% | 274 to 277 °C | 65% | – | – | –
Cc1nn(-c2ccccn2)c2[nH]c3cc(F)c(F)cc3c(=O)c12.O [Example 2-92, 6,7-Difluoro-3-methyl-1-(2-pyridinyl)-1,9-dihydro-4H-pyrazolo[3,4-b]quinolin-4-one monohydrate] | 0 (1000 mg/kg) mm | – | – | – | – | – | – | 0.465 µM | 0.677 µM | 0 (300 mg/kg) mm
